Results as given in PubChem BioAssay (NCI).
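Cells were grown in 96-well plates and exposed to each compound for 48 hours at five concentrations; endpoints were interpolated linearly between bracketing concentrations, or set to the highest concentration if not reached. Abbreviation: GI50, concentration required for 50% inhibition of growth. TGI marks complete inhibition of growth.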

Legend:
Test in all cases: NCI-60 cell line screen, 48 h
ACHN renal = system: ACHN renal
SN12C renal = system: SN12C renal
UACC-257 melanoma = system: UACC-257 melanoma
EKVX NSCLC = system: EKVX NSCLC
MDA-MB-435 = system: MDA-MB-435
NCI-H226 lung = system: NCI-H226 lung
SK-MEL-28 melanoma = system: SK-MEL-28 melanoma
MCF7 breast = system: MCF7 breast
KM12 colon = system: KM12 colon
OVCAR-8 ovarian = system: OVCAR-8 ovarian

SMILES	TGI (ACHN renal)	TGI (SN12C renal)	TGI (UACC-257 melanoma)	TGI (EKVX NSCLC)	TGI (MDA-MB-435)	TGI (NCI-H226 lung)	TGI (SK-MEL-28 melanoma)	TGI (MCF7 breast)	TGI (KM12 colon)	TGI (OVCAR-8 ovarian)	GI50 (ACHN renal)	GI50 (SN12C renal)	GI50 (UACC-257 melanoma)	GI50 (EKVX NSCLC)	GI50 (MDA-MB-435)	GI50 (NCI-H226 lung)	GI50 (SK-MEL-28 melanoma)	GI50 (MCF7 breast)	GI50 (KM12 colon)	GI50 (OVCAR-8 ovarian)
C=c1c2ccccc2oc2nc3[nH]c(N)c(C#N)c(N)c3c(=N)c12	> 100 µM	> 100 µM	> 100 µM	73 µM	> 100 µM	74.9 µM	> 100 µM	> 100 µM	56.4 µM	54.6 µM	–	–	–	–	–	–	–	–	–	–
O=C(/C=C/c1cc2ccccc2[nH]c1=O)c1ccc(O)cc1	8.86 µM	16 µM	16 µM	27.2 µM	16.8 µM	10.9 µM	19.5 µM	16.8 µM	4.5 µM	21.1 µM	2.67 µM	3.48 µM	3.87 µM	13.4 µM	2.94 µM	3.29 µM	5.11 µM	3.49 µM	1.89 µM	3.23 µM
Cc1ccnc2[nH]c(-c3ccc(Cl)cc3)cc(=O)c12	> 100 µM	> 100 µM	> 100 µM	> 100 µM	–	> 30.7 µM	> 100 µM	> 100 µM	> 100 µM	> 100 µM	–	–	–	–	–	–	–	–	–	–
O=C(Cn1cc(I)c(C(=O)NCC(O)CO)n1)NCC(O)CO (configuration not stated)	> 100 µM	> 100 µM	> 100 µM	> 100 µM	–	> 100 µM	> 100 µM	–	> 100 µM	> 100 µM	–	–	–	–	–	–	–	–	–	–
CSCCC(NOC(=O)Cc1ccccc1)P(=O)(O)c1ccccc1 (configuration not stated)	> 100 µM	> 100 µM	> 100 µM	–	> 100 µM	> 100 µM	> 100 µM	> 100 µM	–	> 100 µM	–	–	–	–	–	–	–	–	–	–
Cc1cccc(N=Nc2ccc(O)c(CN(C)C)c2)c1	34.9 µM	> 100 µM	36 µM	58.1 µM	35.8 µM	> 100 µM	36.9 µM	> 100 µM	34.4 µM	85.1 µM	–	–	–	–	–	–	–	–	–	–
COc1ccc(CNCCN2C(=O)c3ccc4c5c(ccc(c35)C2=O)C(=O)N(CCNCc2ccc(OC)c(OC)c2OC)C4=O)c(OC)c1OC	–	0.207 µM	0.303 µM	–	0.801 µM	–	–	1.15 µM	–	0.648 µM	–	0.0942 µM	0.113 µM	–	0.25 µM	–	–	0.222 µM	–	0.16 µM
COc1c(C(=O)CC2c3c(cc4oc(C)cc(=O)c4c3OC)OC(=N)C2c2nc3ccccc3[nH]2)c(O)c(OC)c2occc12 (configuration not stated)	> 100 µM	> 100 µM	> 100 µM	> 100 µM	> 100 µM	> 100 µM	> 100 µM	> 100 µM	> 100 µM	> 100 µM	–	–	–	–	–	–	–	–	–	–
COc1ccc(/C=N/NC(=O)NCCNCCO)cc1	> 100 µM	> 100 µM	> 100 µM	–	–	> 100 µM	> 100 µM	–	> 100 µM	> 100 µM	–	–	–	–	–	–	–	–	–	–
CN(C)c1ccc(/C=C(\C#N)C(=O)c2ccccc2)cc1Br	> 100 µM	> 100 µM	> 100 µM	> 100 µM	–	> 100 µM	> 100 µM	–	> 100 µM	> 100 µM	–	–	–	–	–	–	–	–	–	–
O=C(NC12CC3CC(CC(C3)C1)C2)n1cnc2c(Cl)ncnc21	50.8 µM	> 100 µM	> 100 µM	71.8 µM	40 µM	–	> 100 µM	> 100 µM	> 100 µM	66.4 µM	–	–	–	–	–	–	–	–	–	–
CCN1CCC(O)(/C=C/c2ccc(Cl)c(Cl)c2)C(C(=O)/C=C/c2ccc(Cl)c(Cl)c2)C1 (configuration not stated)	2.43 µM	2.06 µM	2.71 µM	1.89 µM	2.22 µM	3.81 µM	7.97 µM	2.67 µM	1.88 µM	1.87 µM	–	–	–	–	–	–	–	–	–	–
CCc1cc2c(cc1O)CC[C@@H]1[C@@H]2CC[C@]2(C)[C@@H](O)CC[C@@H]12	22.9 µM	20 µM	20 µM	25.5 µM	4.99 µM	26.6 µM	16.3 µM	10.4 µM	17.4 µM	22.4 µM	–	7.3 µM	–	–	–	–	–	–	–	–
N#Cc1ccccc1C#C/C=C\C#Cc1ccccn1	> 100 µM	47.8 µM	28.8 µM	57.7 µM	20.4 µM	–	36 µM	33.5 µM	29.6 µM	30.3 µM	–	–	–	–	–	–	–	–	–	–
CCOC1=C2N=C(C(CC)c3ccc(F)cc3)N=C2C(=O)c2ccccc21 (configuration not stated)	> 81.6 µM	> 66.7 µM	49 µM	> 79.7 µM	–	41.6 µM	> 89.4 µM	–	> 56.5 µM	> 100 µM	–	–	–	–	–	–	–	–	–	–
Cc1cc2nc3c(C)c4ccccc4c(C)n3c2cc1C	> 10 µM	> 10 µM	> 10 µM	> 10 µM	> 10 µM	–	9 µM	> 10 µM	> 10 µM	> 10 µM	–	–	–	–	–	–	–	–	–	–
CC(C)C(C=O)C(O)(C(F)(F)F)C(F)(F)F (configuration not stated)	> 100 µM	–	> 100 µM	> 100 µM	> 100 µM	> 100 µM	> 100 µM	> 100 µM	> 100 µM	> 100 µM	–	–	–	–	–	–	–	–	–	–
CCCC(CCC(=O)O)(CCC(=O)O)[N+](=O)[O-]	> 100 µM	> 100 µM	> 100 µM	> 100 µM	> 100 µM	> 100 µM	–	> 100 µM	> 100 µM	> 100 µM	–	–	–	–	–	–	–	–	–	–
C=C1C(=O)OC2C=C(C)CC3C=C(CCC=C(C)CCC12)C(=O)O3 (configuration not stated)	–	157 µM	106 µM	118 µM	–	174 µM	119 µM	106 µM	109 µM	174 µM	–	–	–	–	–	–	–	–	–	–
C#CCN1C(=O)CN2C(Cl)(Cl)C2(c2ccccc2)c2cc(Cl)ccc21 (configuration not stated)	> 100 µM	> 100 µM	> 100 µM	> 100 µM	–	> 100 µM	> 100 µM	–	94 µM	> 100 µM	–	–	–	–	–	–	–	–	–	–
CC(C)c1cccc(C(C)C)c1NC(=O)/C(Cc1nc2ccc(Cl)cc2[nH]c1=O)=N\NC(=O)C[N+](C)(C)C	> 100 µM	> 100 µM	> 100 µM	> 100 µM	–	–	> 100 µM	–	> 100 µM	> 100 µM	–	–	–	–	–	–	–	–	–	–
